Source: patent US20230064983A1 (priority 2020, published 2023)
pIC50: −log10 of the molar value.

Key:
Format in all cases: cell-based
[1] = molecular target: Ba/F3-EGFR-L858R C797S cells (Homo sapiens, UniProt P00533, C797S/L858R, cells depend on it); assay: Ba/F3 cell survival assay, EGFR L858R C797S; conditions: aquired resistance space; Table 8; read-out: BA/F3 (EGFR L858R C797S) IC50
[2] = molecular target: Ba/F3-EGFR-V769_D770insASV cells (Homo sapiens, UniProt P00533, DUP767-769, cells depend on it); assay: Ba/F3 cell survival assay, EGFR V769_D770insASV; conditions: EGFR Exon20 insertion mutations; Table 6; read-out: BA/F3 (ASV) IC50
PC9 cells = assay: PC9 cell proliferation assay (EGFRex19del); conditions: Homo sapiens, PC-9, 72 h, read-out: PC9 IC50
Method: Cellular Data Description (PC9 cells, EGFRex19del)
PC9 cells were purchased from Tokyo Medical College. 400 PC9 cells per well were seeded in growth medium (DMEM, 10% FCS) in a 384-well plate (CORNING #3571). Seed reference plate for time zero determination on the same day. All plates were incubated overnight at 37° C. After 24 hours, test compound were added in 7-step dilution using HP Compound printer and incubated at 37° C. for 72 h. After 3 days, 30 μL/well CTG solution (Promega Cell Titer Glo solution; catalog #G755B and G756B) were added to each well, incubated for 30 minutes and the plate were read on PheraStar. Proliferation is calculated after subtracting time zero luminescence values from day 4 values and comparing to untreated wells.
The IC50 values were determined using the four parameter fit.

Ba/F3-EGFR L861Q cells = Ba/F3-EGFR L861Q cells (Homo sapiens, UniProt P00533, L861Q, cells depend on it); assay: Ba/F3 cell survival assay, EGFR L861Q; conditions: classical activating and rare EGFR mutations; Table 7; read-out: BA/F3 (EGFR L861Q) IC50
[3] = molecular target: Ba/F3-EGFR-D770_N771insNPG cells (Homo sapiens, UniProt P00533, INS772GNP, cells depend on it); assay: Ba/F3 cell survival assay, EGFR D770_N771insNPG; conditions: EGFR Exon20 insertion mutations; Table 6; read-out: BA/F3 (insNPG) IC50
Ba/F3-EGFR-L858R cells = Ba/F3-EGFR-L858R cells (Homo sapiens, UniProt P00533, L858R, cells depend on it); assay: Ba/F3 cell survival assay, EGFR L858R; conditions: classical activating and rare EGFR mutations; Table 7; read-out: BA/F3 (EGFR L858R) IC50
Chain of Ba/F3-EGFR-L858R cells (P00533 whole entry L858R): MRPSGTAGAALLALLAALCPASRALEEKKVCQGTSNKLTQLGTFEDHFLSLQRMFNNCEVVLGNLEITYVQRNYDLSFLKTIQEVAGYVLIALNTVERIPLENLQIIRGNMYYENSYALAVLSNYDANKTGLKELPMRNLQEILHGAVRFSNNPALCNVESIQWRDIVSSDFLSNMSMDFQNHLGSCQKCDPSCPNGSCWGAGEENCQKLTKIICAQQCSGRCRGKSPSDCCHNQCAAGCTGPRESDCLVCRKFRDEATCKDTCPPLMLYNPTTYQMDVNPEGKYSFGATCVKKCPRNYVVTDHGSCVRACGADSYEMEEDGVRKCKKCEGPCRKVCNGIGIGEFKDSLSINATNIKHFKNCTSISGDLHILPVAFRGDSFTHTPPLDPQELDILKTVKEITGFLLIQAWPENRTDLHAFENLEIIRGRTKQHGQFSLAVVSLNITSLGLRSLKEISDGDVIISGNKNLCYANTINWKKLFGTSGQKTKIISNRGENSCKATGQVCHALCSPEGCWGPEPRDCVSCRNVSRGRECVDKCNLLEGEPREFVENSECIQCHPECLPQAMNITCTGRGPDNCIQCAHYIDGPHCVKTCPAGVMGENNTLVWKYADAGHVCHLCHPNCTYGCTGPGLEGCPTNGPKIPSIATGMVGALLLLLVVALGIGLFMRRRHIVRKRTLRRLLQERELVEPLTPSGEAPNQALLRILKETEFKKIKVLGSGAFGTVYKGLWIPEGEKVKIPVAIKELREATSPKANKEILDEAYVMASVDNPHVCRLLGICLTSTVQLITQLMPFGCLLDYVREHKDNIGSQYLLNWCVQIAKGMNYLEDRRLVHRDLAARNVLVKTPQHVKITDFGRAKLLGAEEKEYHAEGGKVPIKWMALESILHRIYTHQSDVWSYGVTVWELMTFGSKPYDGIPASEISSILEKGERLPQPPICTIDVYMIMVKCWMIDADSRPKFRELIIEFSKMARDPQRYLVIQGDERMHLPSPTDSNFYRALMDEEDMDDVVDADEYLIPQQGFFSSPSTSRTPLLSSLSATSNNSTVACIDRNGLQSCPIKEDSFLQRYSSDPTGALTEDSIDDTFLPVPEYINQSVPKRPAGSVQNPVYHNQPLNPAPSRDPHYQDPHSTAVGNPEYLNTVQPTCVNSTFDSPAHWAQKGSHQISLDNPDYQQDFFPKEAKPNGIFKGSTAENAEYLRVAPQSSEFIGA

Chain of Ba/F3-EGFR L861Q cells (P00533 whole entry L861Q): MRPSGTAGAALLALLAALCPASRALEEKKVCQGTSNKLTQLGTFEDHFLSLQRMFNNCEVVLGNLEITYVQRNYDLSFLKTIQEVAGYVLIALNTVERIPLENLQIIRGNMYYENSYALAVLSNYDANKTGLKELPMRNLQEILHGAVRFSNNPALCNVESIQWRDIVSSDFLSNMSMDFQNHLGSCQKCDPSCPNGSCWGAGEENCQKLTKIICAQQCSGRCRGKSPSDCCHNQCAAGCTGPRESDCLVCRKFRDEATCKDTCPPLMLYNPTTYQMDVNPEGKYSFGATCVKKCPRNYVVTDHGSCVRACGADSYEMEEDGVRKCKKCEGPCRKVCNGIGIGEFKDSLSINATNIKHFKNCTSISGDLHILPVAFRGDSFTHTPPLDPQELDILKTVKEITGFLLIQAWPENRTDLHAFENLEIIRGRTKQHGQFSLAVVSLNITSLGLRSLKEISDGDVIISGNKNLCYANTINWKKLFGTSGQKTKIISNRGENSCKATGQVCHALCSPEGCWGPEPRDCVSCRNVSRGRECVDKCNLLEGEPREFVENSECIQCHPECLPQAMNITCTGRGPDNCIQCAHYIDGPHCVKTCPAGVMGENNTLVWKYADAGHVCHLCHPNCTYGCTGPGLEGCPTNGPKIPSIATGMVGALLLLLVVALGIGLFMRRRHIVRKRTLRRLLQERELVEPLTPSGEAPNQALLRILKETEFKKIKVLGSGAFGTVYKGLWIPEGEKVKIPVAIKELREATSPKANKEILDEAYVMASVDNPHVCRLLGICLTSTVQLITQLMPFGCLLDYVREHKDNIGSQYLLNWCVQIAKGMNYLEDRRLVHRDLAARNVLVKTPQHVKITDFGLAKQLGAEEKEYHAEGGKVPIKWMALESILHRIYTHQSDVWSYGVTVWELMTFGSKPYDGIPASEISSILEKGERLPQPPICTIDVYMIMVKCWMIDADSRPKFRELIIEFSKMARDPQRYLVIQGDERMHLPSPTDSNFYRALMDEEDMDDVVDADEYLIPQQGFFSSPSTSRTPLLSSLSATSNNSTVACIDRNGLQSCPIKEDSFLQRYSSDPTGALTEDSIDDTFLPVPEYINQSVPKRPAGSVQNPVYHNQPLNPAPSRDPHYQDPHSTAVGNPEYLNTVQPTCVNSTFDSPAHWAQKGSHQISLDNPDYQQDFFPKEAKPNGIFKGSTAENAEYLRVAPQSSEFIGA
Chain of Ba/F3-EGFR-L858R C797S cells (P00533 whole entry C797S/L858R): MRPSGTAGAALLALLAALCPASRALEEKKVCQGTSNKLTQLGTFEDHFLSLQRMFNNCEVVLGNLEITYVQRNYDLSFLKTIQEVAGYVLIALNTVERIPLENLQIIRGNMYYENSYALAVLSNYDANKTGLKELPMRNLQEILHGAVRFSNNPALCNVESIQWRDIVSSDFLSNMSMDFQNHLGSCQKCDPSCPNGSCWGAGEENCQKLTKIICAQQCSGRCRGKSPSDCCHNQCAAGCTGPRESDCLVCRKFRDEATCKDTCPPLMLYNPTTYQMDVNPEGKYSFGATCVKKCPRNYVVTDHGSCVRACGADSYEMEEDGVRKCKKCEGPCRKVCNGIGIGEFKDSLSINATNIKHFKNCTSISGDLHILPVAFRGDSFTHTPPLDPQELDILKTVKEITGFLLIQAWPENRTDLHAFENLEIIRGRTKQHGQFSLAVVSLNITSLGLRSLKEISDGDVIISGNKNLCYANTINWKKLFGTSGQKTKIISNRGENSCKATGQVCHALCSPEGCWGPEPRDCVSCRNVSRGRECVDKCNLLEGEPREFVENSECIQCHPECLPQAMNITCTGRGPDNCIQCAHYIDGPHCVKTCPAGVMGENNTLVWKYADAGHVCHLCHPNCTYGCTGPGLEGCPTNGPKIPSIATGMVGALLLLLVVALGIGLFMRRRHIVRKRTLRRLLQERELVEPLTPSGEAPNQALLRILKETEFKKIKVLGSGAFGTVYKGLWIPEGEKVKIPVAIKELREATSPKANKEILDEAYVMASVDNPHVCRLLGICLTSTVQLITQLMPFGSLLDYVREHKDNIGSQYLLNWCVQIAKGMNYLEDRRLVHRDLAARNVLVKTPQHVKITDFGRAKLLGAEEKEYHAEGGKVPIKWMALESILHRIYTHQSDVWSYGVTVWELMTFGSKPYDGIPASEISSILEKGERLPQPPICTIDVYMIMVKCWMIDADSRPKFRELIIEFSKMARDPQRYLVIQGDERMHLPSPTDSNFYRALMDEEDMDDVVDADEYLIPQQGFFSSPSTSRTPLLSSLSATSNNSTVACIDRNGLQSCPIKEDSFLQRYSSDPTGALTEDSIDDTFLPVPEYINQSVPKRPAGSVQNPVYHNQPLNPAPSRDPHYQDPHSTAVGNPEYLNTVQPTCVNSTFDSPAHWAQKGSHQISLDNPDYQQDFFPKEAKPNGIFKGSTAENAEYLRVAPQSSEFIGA
Chain of Ba/F3-EGFR-V769_D770insASV cells (P00533 with tags, fused parts or gaps DUP767-769): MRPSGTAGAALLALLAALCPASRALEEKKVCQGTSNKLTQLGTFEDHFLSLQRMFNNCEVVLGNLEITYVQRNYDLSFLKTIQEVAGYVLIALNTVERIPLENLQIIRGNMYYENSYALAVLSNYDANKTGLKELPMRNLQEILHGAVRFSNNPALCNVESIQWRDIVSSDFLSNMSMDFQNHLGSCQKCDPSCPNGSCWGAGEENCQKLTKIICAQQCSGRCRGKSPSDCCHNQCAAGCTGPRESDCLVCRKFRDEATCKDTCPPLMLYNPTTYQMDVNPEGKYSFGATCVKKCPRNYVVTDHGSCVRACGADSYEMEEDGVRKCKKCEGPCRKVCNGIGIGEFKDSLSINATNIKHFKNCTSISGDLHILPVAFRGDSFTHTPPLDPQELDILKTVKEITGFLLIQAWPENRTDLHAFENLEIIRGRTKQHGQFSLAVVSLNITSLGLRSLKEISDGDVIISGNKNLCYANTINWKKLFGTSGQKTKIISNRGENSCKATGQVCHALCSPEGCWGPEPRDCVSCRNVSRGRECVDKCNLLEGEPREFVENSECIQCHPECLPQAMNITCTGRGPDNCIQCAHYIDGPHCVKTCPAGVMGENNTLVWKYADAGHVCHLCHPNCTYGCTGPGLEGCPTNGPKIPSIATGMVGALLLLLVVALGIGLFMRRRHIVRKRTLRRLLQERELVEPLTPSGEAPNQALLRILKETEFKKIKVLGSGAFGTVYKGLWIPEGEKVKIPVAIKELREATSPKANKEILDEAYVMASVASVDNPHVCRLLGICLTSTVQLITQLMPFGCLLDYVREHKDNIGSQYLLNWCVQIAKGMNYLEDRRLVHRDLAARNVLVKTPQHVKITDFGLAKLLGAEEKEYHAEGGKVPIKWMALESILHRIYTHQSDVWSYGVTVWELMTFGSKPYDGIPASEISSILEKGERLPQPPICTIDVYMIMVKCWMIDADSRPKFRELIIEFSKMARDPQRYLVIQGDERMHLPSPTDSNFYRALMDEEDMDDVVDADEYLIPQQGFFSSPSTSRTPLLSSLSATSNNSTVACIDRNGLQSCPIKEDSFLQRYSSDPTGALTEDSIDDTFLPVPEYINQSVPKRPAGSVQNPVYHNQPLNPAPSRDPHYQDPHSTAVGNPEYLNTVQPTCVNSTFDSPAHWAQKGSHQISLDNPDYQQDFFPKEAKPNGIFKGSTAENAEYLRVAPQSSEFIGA

Compound | GI50 [1] [nM] | GI50 [2] [nM] | pIC50 (PC9 cells) | GI50 (Ba/F3-EGFR L861Q cells) [nM] | GI50 [3] [nM] | GI50 (Ba/F3-EGFR-L858R cells) [nM]
COCC(C)Oc1cnccc1-c1[nH]c2c(c1Nc1cccc(Cl)c1OC)C(=O)N[C@@H]1CCC[C@H]21 (single isomer, unassigned) [Example 51] | 1.32 | 12.8 | 8.76 | 14.9 | 11.4 | 1.32
COc1c(Cl)cccc1Nc1c(-c2ccncc2OC[C@@H]2CCCO2)[nH]c2c1C(=O)NC1(CC1)C2 [Example 113, 3′-(3-chloro-2-methoxyanilino)-2′-(3-{[(2S)-oxolan-2-yl]methoxy}pyridin-4-yl)-1′,7′-dihydrospiro[cyclopropane-1,6′-pyrrolo[3,2-c]pyridin]-4′(5′H)-one] | 5.07 | 26 | 8.19 | 45 | 24.9 | 3.71
COc1c(Cl)cccc1Nc1c(-c2ccncc2OCC2COCCO2)[nH]c2c1C(=O)NCC2C (single isomer, unassigned) [Example 34, 3-(3-chloro-2-methoxy-anilino)-2-[3-(1,4-dioxan-2-ylmethoxy)-4-pyridyl]-7-methyl-1,5,6,7-tetrahydropyrrolo[3,2-c]pyridin-4-one] | 3.07 | 30.2 | 8.46 | 31.8 | 16.9 | 2.76
Cc1c(Cl)cccc1Nc1c(-c2ccncc2OCC2COCCO2)[nH]c2c1C(=O)NCC2C (single isomer, unassigned) [Example 67, 3-(3-chloro-2-methyl-anilino)-2-[3-(1,4-dioxan-2-ylmethoxy)-4-pyridyl]-7-methyl-1,5,6,7-tetrahydropyrrolo[3,2-c]pyridin-4-one] | 2.49 | 40.3 | 8.39 | 53.6 | 13.5 | 3.16
COc1c(Cl)cccc1Nc1c(-c2ccncc2OCCC(C)OC)[nH]c2c1C(=O)N[C@H](C)C2 (single isomer, unassigned) [Example 121] | 1.07 | 10.1 | 8.74 | 11.2 | 12.8 | 1.17
COc1c(Cl)cccc1Nc1c(-c2ccncc2OCCC2CCCCO2)[nH]c2c1C(=O)N[C@H](C)C2 (single isomer, unassigned) [Example 87] | 1.38 | 13.2 | 8.74 | 33.4 | 15 | 1.29
